The subject of one experiment is A431. Description: A431 cell proliferation assay (CellTiter Glo, 72 hours). Type of experiment: cell-based. Particulars: Homo sapiens, A-431, 72 h, cell proliferation, A431, 72 hours, Table 2; read-out: A431 IC50. The method, then: (§1) Cell line: Ba/F3 cells with EGFR Δ19del/T790M/C797S mutation gene stably overexpressed named Ba/F3-Δ119del/T90M/C797S, and A431 and Ba/F3-EGFR wild-type cell line.
RPMI 1640 and 10% FBS and 1% PS; DMEM and 10% FBS and 1% PS.
a) Dilute the test compound (20 mM stock solution) to 10 mM with 100% DMSO as the starting concentration, and then serially dilute 3 times with a “9+0” concentration in 96-well dilution plate (Cat #P-05525, Labcyte);
b) Dilute compound solution thereof to 1:100 (1:20 for comparative compound 1 and compounds 1-38) in medium to prepare 10-fold working solution;
(§2) a) Centrifuge the growth cells in logarithmic phase at 1000 rpm for 5 minutes, resuspend the cells in culture medium, and then count the cells;
(§3) b) Inoculate the cells into a 96-well cell culture plate with a density of 2000 cells/well;
a) Compounds prepared at step 2 were added to cell plate with 15 μl per well, the final concentrations were 1000, 333, 111.1, 37, 12.3, 4.1, 1.4, 0.5, 0.2 and 0 nM, and the final concentration of DMSO was 0.1%. The blank control well was a culture medium (0.1% DMSO) (the blank control well of comparative compound 1 and compounds 1-38 was a culture medium (0.5% DMSO).
(§4) b) Incubate cells in an incubator for another 72 hours.
(§5) a) Take out the 96-well cell culture plate and add 50 μl CTG reagent (CellTiter Glo kit, promega, Cat #G7573);
(§6) b) Shake the plate for 2 minutes and let cool at room temperature for 10 minutes;
(§7) c) Read luminous signal value with PerkinElmer reader,
(§8) Analysis of Experimental Data
(§9) The data were analyzed by GraphPad Prism 6.0 software to obtain the fitting curve of compound activity.
Fitting compound IC50 from nonlinear regression equation:
(§10) Y=Min+(Max−Min)/(1+10^((Log IC50−X)*slope));
(§11) X: Logarithm of compound concentration; Y: luminous signal.
For orientation: Cellular ATP, detected with luciferase, serves as a proxy for viable cell number.

In experiment [1] the target is Ba/F3 cells with EGFR Δ19del/T790M/C797S mutation gene stably overexpressed (Homo sapiens, UniProt P00533, T790M/C797S, cells depend on it, form not given). Description: Ba/F3-Δ19del/T790M/C797S cell proliferation assay (CellTiter Glo, 72 hours). Conditions: Table 2, read-out: EGFR Δ19del/T790M/C797S IC50. Type of experiment: cell-based. The method, then:
as §1, §2, §3, §4, §5, §6, §7, §8, §9, §10, §11

A further experiment has as its target EGFR WT (Homo sapiens, UniProt P00533). Description: EGFR WT kinase test (mobility variation analysis, Caliper EZ Reader). Type of experiment: biochemical. Conditions: kinase enzymatic activity, Table 1. Here is the method: (§12) Mobility variation analysis was performed to determine the affinity of the compound for EGFRΔ19del/T790M/C797S, EGFR WT and IGF1R. The enzymatic reaction scheme is as follows:
(§13) 1. Prepare 1*kinase buffer as follows.
(§14) 3. […] Prepare 2.5-fold final concentration of kinase solution with 1×Kinase buffer.
(§15) 4. Add 10 μL of 2.5-fold final concentration of kinase solution to the compound well and the positive control well; add 10 μL of 1×Kinase buffer to the negative control well.
(§16) 5. Centrifuge at 1000 rpm for 30 s, shake the reaction plate for well mixing, and then incubate at room temperature for 10 minutes.
(§17) 6. Prepare a mixture of ATP and Kinase substrate at 5/3-fold final concentration with 1×Kinase buffer.
(§18) 8. Centrifuge the 384-well plate at 1000 rpm for 30 s, shake it well and then incubate it at room temperature for corresponding time.
(§19) 9. Add 30 μL of stop detection solution to stop the kinase reaction, centrifuge at 1000 rpm for 30 s, and shake it well.
(§20) 10. Read conversion rate with Caliper EZ Reader.
(§21) % Inhibition=((Conversion%_max−Conversion%_sample)/(Conversion%_max−Conversion%_min))*100
(§22) Wherein: Conversion%_sample is the sample conversion rate reading; Conversion%_min: Mean value of negative control wells, representing the conversion rate reading of wells without enzymatic activity; Conversion%_max: Mean value of positive control wells, representing the conversion rate reading of wells without compound inhibition.
(§23) The dose-effect curve was fitted with concentration log value as X-axis and percentage inhibition rate as Y-axis. GraphPad Prism 5 analysis software was used for fitting Log (inhibitor) vs. response—Variable slope with the dose-effect curve to obtain IC50 value of enzymatic activity for each compound.
(§24) The calculation formula is as Y-Bottom+(Top-Bottom)/(1+10^((Log IC50−X)*HillSlope)).

The next experiment addresses IGF1R (Homo sapiens, UniProt P08069). Description: IGF1R kinase test (mobility variation analysis, Caliper EZ Reader). Type of experiment: biochemical. Conditions: kinase enzymatic activity, Table 1; read-out: EGFR IGF1R IC50. Here is the method:
as §12, §13
2. Preparation of compound concentration gradient: The test compound was tested with an initial concentration of 3000 nM (300 nM for some triple mutations and 100 nM for others), diluted in a 384 source plate (96-well plate for comparative compound 1 and compounds 1-38) to a 100% DMSO solution with 100-fold final concentration, and the compound is 3-fold diluted with Precision to 10 concentrations. A dispenser Echo 550 was used to transfer 250 nL 100-fold final concentration of the compound to the target plate OptiPlate-384F.
3. Prepare 2.5-fold final concentration (5-fold for comparative compound 1 and compounds 1-38) of kinase solution with 1×Kinase buffer. Following steps should also be carried out for comparative compound 1 and compounds 1-38: Add each prepared intermediate dilution compounds to the compound wells of 384-well plate respectively, and test the repeated wells of each concentration; add 5% DMSO of 5 plates into the negative control well and the positive control well respectively. Prepare 2.5-fold final concentration of kinase solution with 1×Kinase buffer.
as §15, §16, §17
7. Add 15 μL mixture of 5/3-fold (2.5-fold for comparative compound 1 and compounds 1-38) final concentration of ATP and substrate to start reaction.
as §18, §19, §20, §21, §22, §23, §24

The target of another experiment is EGFRΔ19del/T790M/C797S (Homo sapiens, UniProt P00533, T790M/C797S, form not given). As to the kind of experiment: EGFR Δ19del/T790M/C797S kinase test (mobility variation analysis, Caliper EZ Reader). Type of experiment: biochemical. Conditions: kinase enzymatic activity, Table 1. The method, then: as §12, §13, §14, §15, §16, §17, §18, §19, §20, §21, §22, §23, §24
Sequence of EGFRΔ19del/T790M/C797S (P00533 with tags, fused parts or gaps DEL746-750/T790M/C797S, form open): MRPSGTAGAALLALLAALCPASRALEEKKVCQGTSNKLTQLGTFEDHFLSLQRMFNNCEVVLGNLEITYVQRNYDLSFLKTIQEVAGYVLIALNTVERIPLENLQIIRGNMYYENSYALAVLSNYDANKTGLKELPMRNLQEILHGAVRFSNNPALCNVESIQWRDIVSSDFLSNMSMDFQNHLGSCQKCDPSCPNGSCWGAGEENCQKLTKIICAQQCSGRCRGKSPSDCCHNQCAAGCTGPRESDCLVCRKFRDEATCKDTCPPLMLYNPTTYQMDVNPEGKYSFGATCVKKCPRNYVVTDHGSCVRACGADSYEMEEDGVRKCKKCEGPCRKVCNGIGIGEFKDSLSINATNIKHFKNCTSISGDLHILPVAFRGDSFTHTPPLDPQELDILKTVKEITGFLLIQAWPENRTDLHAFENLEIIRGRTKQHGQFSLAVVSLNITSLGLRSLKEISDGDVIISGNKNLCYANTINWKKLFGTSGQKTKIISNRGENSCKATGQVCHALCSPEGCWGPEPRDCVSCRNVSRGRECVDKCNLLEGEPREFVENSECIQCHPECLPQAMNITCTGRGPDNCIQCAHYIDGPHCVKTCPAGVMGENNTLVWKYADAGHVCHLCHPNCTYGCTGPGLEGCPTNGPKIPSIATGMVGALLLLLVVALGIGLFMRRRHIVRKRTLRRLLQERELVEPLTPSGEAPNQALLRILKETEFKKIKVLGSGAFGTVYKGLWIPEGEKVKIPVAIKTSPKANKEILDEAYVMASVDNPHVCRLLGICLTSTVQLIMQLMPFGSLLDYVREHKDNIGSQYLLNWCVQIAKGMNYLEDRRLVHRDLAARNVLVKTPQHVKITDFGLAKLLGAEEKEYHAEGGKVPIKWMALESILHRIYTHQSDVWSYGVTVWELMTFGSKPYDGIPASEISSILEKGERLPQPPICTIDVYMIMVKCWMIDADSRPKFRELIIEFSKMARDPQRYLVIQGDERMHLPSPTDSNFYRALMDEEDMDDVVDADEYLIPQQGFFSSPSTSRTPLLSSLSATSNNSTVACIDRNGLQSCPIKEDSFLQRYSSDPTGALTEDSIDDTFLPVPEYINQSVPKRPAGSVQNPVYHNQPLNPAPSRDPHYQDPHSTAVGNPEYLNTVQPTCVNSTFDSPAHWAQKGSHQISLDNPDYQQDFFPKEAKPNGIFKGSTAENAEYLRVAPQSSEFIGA

Sequence of IGF1R (P08069 31-1367, species assumed): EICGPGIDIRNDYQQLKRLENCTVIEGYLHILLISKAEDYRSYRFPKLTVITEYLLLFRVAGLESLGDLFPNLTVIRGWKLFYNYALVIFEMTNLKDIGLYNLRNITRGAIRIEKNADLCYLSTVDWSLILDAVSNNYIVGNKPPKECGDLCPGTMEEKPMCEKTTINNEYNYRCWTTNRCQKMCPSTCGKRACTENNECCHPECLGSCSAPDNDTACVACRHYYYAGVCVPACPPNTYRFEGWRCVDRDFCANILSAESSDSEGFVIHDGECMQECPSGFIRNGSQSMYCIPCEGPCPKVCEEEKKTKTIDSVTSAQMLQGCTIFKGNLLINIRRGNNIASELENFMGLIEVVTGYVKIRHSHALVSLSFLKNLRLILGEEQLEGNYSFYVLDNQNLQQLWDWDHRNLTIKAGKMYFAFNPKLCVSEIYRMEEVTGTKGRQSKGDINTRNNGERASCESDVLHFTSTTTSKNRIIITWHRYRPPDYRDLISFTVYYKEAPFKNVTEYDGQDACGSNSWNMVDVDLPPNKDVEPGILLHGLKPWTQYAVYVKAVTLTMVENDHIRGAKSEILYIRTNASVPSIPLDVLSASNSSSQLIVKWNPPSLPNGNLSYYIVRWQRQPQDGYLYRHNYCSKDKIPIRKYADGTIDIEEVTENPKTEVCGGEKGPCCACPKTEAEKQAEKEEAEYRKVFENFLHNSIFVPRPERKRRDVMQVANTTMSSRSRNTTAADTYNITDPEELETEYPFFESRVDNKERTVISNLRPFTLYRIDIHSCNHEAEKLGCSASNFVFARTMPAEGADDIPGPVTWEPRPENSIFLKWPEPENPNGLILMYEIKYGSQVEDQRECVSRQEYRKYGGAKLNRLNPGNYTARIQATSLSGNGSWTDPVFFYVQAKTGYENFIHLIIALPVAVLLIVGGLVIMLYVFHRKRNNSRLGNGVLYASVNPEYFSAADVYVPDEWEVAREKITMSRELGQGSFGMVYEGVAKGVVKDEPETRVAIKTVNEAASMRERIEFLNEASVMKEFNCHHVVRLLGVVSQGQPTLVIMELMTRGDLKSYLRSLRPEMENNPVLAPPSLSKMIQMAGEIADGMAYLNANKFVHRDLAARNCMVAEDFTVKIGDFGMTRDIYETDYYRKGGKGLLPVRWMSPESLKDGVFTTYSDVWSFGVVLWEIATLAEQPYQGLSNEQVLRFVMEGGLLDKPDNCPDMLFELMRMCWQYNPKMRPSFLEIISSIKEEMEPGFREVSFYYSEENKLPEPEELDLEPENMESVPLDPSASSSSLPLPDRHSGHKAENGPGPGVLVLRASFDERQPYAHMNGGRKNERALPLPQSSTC
Sequence of Ba/F3 cells with EGFR Δ19del/T790M/C797S mutation gene stably overexpressed (P00533 with tags, fused parts or gaps DEL746-750/T790M/C797S, form open): as the sequence (P00533 with tags, fused parts or gaps DEL746-750/T790M/C797S, form open) above
Sequence of EGFR WT (P00533 25-1210): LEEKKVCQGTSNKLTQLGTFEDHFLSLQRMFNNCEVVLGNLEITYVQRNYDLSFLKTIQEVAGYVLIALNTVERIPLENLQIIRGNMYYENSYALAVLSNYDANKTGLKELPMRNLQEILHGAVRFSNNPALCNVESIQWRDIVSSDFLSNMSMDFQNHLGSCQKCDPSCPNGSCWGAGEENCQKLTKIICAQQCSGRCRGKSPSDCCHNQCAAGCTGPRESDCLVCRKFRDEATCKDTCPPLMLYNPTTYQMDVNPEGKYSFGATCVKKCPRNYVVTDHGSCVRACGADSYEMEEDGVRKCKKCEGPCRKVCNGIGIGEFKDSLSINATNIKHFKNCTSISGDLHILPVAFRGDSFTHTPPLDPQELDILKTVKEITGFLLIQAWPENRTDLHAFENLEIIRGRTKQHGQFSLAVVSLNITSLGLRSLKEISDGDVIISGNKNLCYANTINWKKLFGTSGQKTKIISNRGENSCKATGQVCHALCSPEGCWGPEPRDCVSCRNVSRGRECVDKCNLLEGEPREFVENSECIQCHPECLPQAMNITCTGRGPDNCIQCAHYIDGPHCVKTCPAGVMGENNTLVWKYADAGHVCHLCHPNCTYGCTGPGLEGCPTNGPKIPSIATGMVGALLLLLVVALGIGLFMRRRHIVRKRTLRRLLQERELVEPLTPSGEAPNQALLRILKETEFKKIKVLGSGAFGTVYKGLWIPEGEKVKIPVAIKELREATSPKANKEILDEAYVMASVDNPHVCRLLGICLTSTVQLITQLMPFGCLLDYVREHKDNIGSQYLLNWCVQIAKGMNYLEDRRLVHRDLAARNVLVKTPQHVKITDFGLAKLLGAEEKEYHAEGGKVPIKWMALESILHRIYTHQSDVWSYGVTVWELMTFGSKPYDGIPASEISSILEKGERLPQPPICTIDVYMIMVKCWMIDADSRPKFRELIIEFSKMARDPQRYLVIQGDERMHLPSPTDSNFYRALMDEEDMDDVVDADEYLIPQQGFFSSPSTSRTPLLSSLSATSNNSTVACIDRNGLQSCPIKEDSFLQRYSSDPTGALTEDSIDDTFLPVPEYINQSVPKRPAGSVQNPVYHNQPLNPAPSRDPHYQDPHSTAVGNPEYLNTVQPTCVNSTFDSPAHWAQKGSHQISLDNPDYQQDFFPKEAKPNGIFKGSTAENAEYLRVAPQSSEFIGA

With `CCc1cc(Nc2ncc(Br)c(Nc3ccc(-c4ccc(C)nc4)cc3P(C)(C)=O)n2)c(OC)cc1N1CCC(N2CCN(C)CC2)CC1` [Compound 82, (2-((5-Bromo-2-((5-ethyl-2-methoxy-4-(4-(4-methylpiperazin-1-yl)piperidin-1-yl)phenyl)amino)pyrimidin-4-yl)amino)-5-(6-methylpyridin-3-yl)phenyl)dimethylphosphine oxide], the IC50 – broadly, the point on the concentration scale where inhibition reaches its midpoint – amounted to 1.62 µM in the experiment with A431, 0.0291 µM at EGFR WT, 0.179 µM on IGF1R and 0.0005 µM on EGFRΔ19del/T790M/C797S. Further, in experiment [1], the GI50 was 0.0276 µM.
On the same counts, the results for `CCc1cc(Nc2ncc(Br)c(Nc3ccc(-c4ccc(N(C)C)nn4)cc3P(C)(C)=O)n2)c(OC)cc1N1CCC(N2CCN(C)CC2)CC1` [Compound 37, (2-((5-Bromo-2-((5-ethyl-2-methoxy-4-(4-(4-methylpiperazin-1-yl)piperidin-1-yl)phenyl)amino)pyrimidin-4-yl)amino)-5-(6-(dimethylamino)pyridazin-3-yl)phenyl)dimethylphosphine oxide] are more than 10 µM, 0.0288 µM, 0.263 µM, 0.0003 µM and 0.0174 µM.
For the molecule `CCc1cc(Nc2ncc(Cl)c(Nc3ccc(-c4nnc(C)o4)cc3P(C)(C)=O)n2)c(OC)cc1N1CCC(N2CCN(C)CC2)CC1` [Compound 45, (2-((5-Chloro-2-((5-ethyl-2-methoxy-4-(4-(4-methylpiperazin-1-yl)piperidin-1-yl)phenyl)amino)pyrimidin-4-yl)amino)-5-(5-methyl-1,3,4-oxadiazol-2-yl)phenyl)dimethylphosphine oxide], the IC50 in the experiment with A431 is 1.07 µM; on EGFR WT, 0.0315 µM; on IGF1R it was 0.124 µM; against EGFRΔ19del/T790M/C797S it was 0.0004 µM. Besides, the GI50 in experiment [1] was 0.0262 µM.
On the same counts, the results for `CCc1cc(Nc2ncc(Cl)c(Nc3ccc(-c4ncc(F)cn4)cc3P(C)(C)=O)n2)c(OC)cc1N1CCC(N2CCN(C)CC2)CC1` [Compound 18, (2-((5-Chloro-2-((5-ethyl-2-methoxy-4-(4-(4-methylpiperazin-1-yl)piperidin-1-yl)phenyl)amino)pyrimidin-4-yl)amino)-5-(5-fluoropyrimidin-2-yl)phenyl)dimethylphosphine oxide] are 1.27 µM, 0.0203 µM, 0.126 µM, 0.0007 µM and 0.0132 µM.
On to `CCc1cc(Nc2ncc(Br)c(Nc3ccc(-c4cncc(OC)n4)cc3P(C)(C)=O)n2)c(OC)cc1N1CCC(N2CCN(C)CC2)CC1` [Compound 13], for which the half-inhibitory concentration (IC50) in the experiment with A431 came to 1.68 µM; against EGFR WT it was 0.0311 µM; at IGF1R, 0.182 µM; at EGFRΔ19del/T790M/C797S, 0.0004 µM. Moreover, in experiment [1], the GI50 came out at 0.0405 µM.
In the same order, the values of `CCc1cc(Nc2ncc(Br)c(Nc3ccc(-c4cn(C)c5ncccc45)cc3P(C)(C)=O)n2)c(OC)cc1N1CCC(N2CCN(C)CC2)CC1` [Compound 46, (2-((5-Bromo-2-((5-ethyl-2-methoxy-4-(-4-(4-methylpiperazin-1-yl)piperidin-1-yl)phenyl)amino)pyrimidin-4-yl)amino)-5-(1-methyl-1H-pyrrolo[2,3-b]pyridin-3-yl)phenyl)dimethylphosphine oxide] are 2.31 µM, 0.0476 µM, 0.628 µM, 0.0017 µM and 0.0303 µM.
On the same counts, the results for `CCc1cc(Nc2ncc(Br)c(Nc3ccc(-c4cnn(CCN5CCOCC5)c4)cc3P(C)(C)=O)n2)c(OC)cc1N1CCC(N2CCN(C)CC2)CC1` [Compound 47, (2-((5-Bromo-2-((5-ethyl-2-methoxy-4-(4-(4-methylpiperazin-1-yl)piperidin-1-yl)phenyl)amino)pyrimidin-4-yl)amino)-5-(1-(2-morpholinoethyl)-1hydro-pyrazol-4-yl)phenyl)dimethylphosphine oxide] are 0.771 µM, 0.0155 µM, 0.06 µM, 0.0009 µM and 0.0234 µM.
On the same counts, the results for `CCOc1ncc(-c2ccc(Nc3nc(Nc4cc(CC)c(N5CCC(N6CCN(C)CC6)CC5)cc4OC)ncc3Br)c(P(C)(C)=O)c2)cn1` [Compound 76] are 1.52 µM, 0.036 µM, 0.114 µM, 0.0003 µM and 0.0374 µM.
For `CCc1cc(Nc2ncc(Br)c(Nc3ccc(-c4cnsc4)cc3P(C)(C)=O)n2)c(OC)cc1N1CCC(N2CCN(C)CC2)CC1` [Compound 38, (2-((5-Bromo-2-((5-ethyl-2-methoxy-4-(4-(4-methylpiperazin-1-yl)piperidin-1-yl)phenyl)amino)pyrimidin-4-yl)amino)-5-(isothiazol-4-yl)phenyl)dimethylphosphine oxide], the IC50 in the experiment on A431 turned out to be 0.711 µM; at EGFR WT, 0.0111 µM; at IGF1R, 0.064 µM; against EGFRΔ19del/T790M/C797S, 0.0003 µM. The GI50 in experiment [1] is 0.0112 µM.
In the same order, the values of `CCc1cc(Nc2ncc(Cl)c(Nc3ccc(-c4cscn4)cc3P(C)(C)=O)n2)c(OC)cc1N1CCC(N2CCN(C)CC2)CC1` [Compound 14, (2-((5-Chloro-2-((5-ethyl-2-methoxy-4-(4-(4-methylpiperazin-1-yl)piperidin-1-yl)phenyl)amino)pyrimidin-4-yl)amino)-5-(thiazol-4-yl)phenyl)dimethylphosphine oxide] are 0.769 µM, 0.0139 µM, 0.149 µM, 0.0004 µM and 0.0145 µM.
Consider `CCc1cc(Nc2ncc(Cl)c(Nc3ccc(-c4ccccc4)cc3P(C)(C)=O)n2)c(OC)cc1N1CCC(N2CCN(C)CC2)CC1` [Compound 2, (4-((5-Chloro-2-((5-ethyl-2-methoxy-4-(4-(4-methylpiperazin-1-yl)piperidin-1-yl)phenyl)amino)pyrimidin-4-yl)amino)-[1,1′-biphenyl]-3-yl)dimethylphosphine oxide], for which the 50% inhibitory concentration (IC50) in the experiment with A431 amounted to 0.812 µM; on IGF1R it was 0.15 µM; against EGFRΔ19del/T790M/C797S, 0.0007 µM. Also, the GI50 in experiment [1] turned out to be 0.0218 µM.

Values taken from US20220402948A1, “EGFR INHIBITOR, COMPOSITION AND PREPARATION METHOD THEREFOR” (BETTA PHARMACEUTICALS CO., LTD., priority 2019, published 2022).
